According to patent US20180140579A1, “SACUBITRIL AND VALSARTAN FOR TREATING METABOLIC DISEASE” (NOVARTIS AG, priority 2015, published 2018):
Several values for one entry are separate records, joined by “and”; a condition that tells them apart may be missing. Equal values may be shown once.

Tests used:
[1] = system: patients with mild-to-moderate hypertension and abdominal adiposity; assay: Hyperinsulinemic-euglycemic glucose clamp (insulin sensitivity), clinical study NCT01631864; assay type: in vivo, human; details: for Glucose infusion rate by body weight (Mbw), Day 56, adjusted mean / Insulin sensitivity index, Day 56, adjusted mean: Day 56 (week 8)
Procedure: (§1) At baseline and week 8, peripheral insulin sensitivity (hyperinsulinemic-euglycemic glucose clamp), abdominal subcutaneous adipose tissue lipolysis (microdialysis), whole-body lipolysis (glycerol tracer kinetics), energy expenditure and substrate oxidation (indirect calorimetry) were determined.
Patients were also stratified into 4 groups based on the baseline Homeostasis Model Assessment of Insulin Resistance (HOMA-IR) (<2.5 and ≥2.5) and use of statin therapy within 8 weeks prior to randomization.
The HEGC assessment was performed on Day −1 (baseline) and on Day 56 under fasting conditions. A dorsal hand vein was catheterized and kept warm for arterialized blood sampling and the contralateral arm was cathetered for the infusion of glucose and insulin. […] Blood samples to determine glucose levels during the HEGC were collected continuously (automated clamp) or at approximately 5-min intervals (manual clamp). The last 30 minutes (minutes 90-120) of the clamp were considered as the steady state period and the mean glucose infusion rate was calculated for this time period.
The insulin sensitivity index (SI) was calculated from steady-state glucose infusion rates, and plasma insulin and glucose concentrations at steady-state (SI: Glucose infusion rate/[plasma glucose×plasma insulin], μg/kg*min/[mmol/L*pmol/L]). Furthermore whole-body glucose disposal rate (M, mg/min) was calculated from the mean glucose infusion rate at steady state to assess peripheral insulin sensitivity. Finally, the metabolic clearance rate (MCR) was calculated from M-value and the mean blood glucose concentration (BG) at steady-state (MCR: M/BG, min*mmol). The glucose disposal rate was also expressed per unit of insulin at steady-state, calculated from M-value and plasma insulin concentrations (M/l, U/min).
Differences between treatments for change in SI from baseline were analyzed as above.

[2] = system: patients with mild-to-moderate hypertension and abdominal adiposity; assay: Abdominal subcutaneous adipose tissue microdialysis (local lipolysis); assay type: in vivo, human; details: for Glucose in adipose tissue microdialysate, adjusted geometric mean ratio Day 57 vs Day 1 / Lactate in adipose tissue microdialysate, adjusted geometric mean ratio Day 57 vs Day 1 / Glycerol (free) in adipose tissue microdialysate, adjusted geometric mean ratio Day 57 vs Day 1 / interstitial glycerol levels at week 8 (subcutaneous adipose tissue lipolysis at rest): at rest; for Glycerol (free) in adipose tissue microdialysate, adjusted geometric mean ratio Day 57 vs Day 1: 8 weeks treatment; for interstitial glycerol levels at week 8 (subcutaneous adipose tissue lipolysis at rest): p=0.003 between groups
Procedure: Assessment of lipolysis at rest was performed on Day 1 prior to first dosage and on Day 57. Abdominal subcutaneous adipose tissue lipolysis was assessed by microdialysis in the fasting condition. […] Microdialysate samples for measurement of the analytes were collected at 30 minutes and 45 minutes in the flow calibration phase. Glycerol (an indicator of local lipolysis), glucose, and lactate concentrations were measured in the microdialysate, reflecting the interstitial concentrations in the adipose tissue. The ethanol ratio (ratio of ethanol concentration in dialysate to ethanol concentration in perfusate) was measured as an indicator of adipose tissue blood flow. For abdominal subcutaneous adipose tissue microdialysate data (ethanol ratio, dialysate lactate, dialysate glucose, and plasma glycerol, glycerol, NEFA, glucose, insulin, adrenalin, and noradrenalin) at rest, data was analyzed using repeated measures analysis on log transformed values with treatment, visit, time and treatment*visit*time interaction as fixed effects.

[3] = system: patients with mild-to-moderate hypertension and abdominal adiposity; assay: Energy expenditure and substrate oxidation by indirect calorimetry; assay type: in vivo, human; details: LCZ696 400 mg QD or amlodipine 10 mg QD; for Respiratory quotient (carbon dioxide to oxygen ratio), Day 57 adjusted mean (95% CI): Day 57, at rest
Procedure: as §1
Energy expenditure and substrate oxidation were assessed in parallel by indirect calorimetry using a ventilated hood system. The ventilated hood measurements were recorded for 30 minutes in the resting state (during the flow calibration phase).

[4] = system: patients with mild-to-moderate hypertension and abdominal adiposity; assay: Blood pressure monitoring (mean seated BP); assay type: in vivo, human; details: Day 57 vs baseline; LCZ696 400 mg QD or amlodipine 10 mg QD
From the text: Seating BP was monitored at screening and throughout the study using the same equipment. During the home stay period, patients were given a home measurement device and instructed to monitor BP twice weekly at approximately the same time each morning (7-9 AM).

[5] = system: patients with mild-to-moderate hypertension and abdominal adiposity; assay: Safety assessments (adverse events); assay type: in vivo, human; details: for Discontinuations due to AEs: LCZ696 N = 50, amlodipine N = 48
Procedure: Safety assessments included adverse events (AEs) and serious adverse events (SAEs) and were conducted throughout the study by regular monitoring of hematology, blood chemistry and urine analysis as well as assessments of vital signs (BP and pulse measurements), ECG, physical condition and body weight. The pharmacodynamics (PD) analysis set included all patients with available PD data and no protocol deviations with relevant impact on PD data. The safety analysis set included all patients who received any of the study drugs.

[6] = system: patients with mild-to-moderate hypertension and abdominal adiposity; assay: Abdominal subcutaneous adipose tissue microdialysis (local lipolysis); assay type: in vivo, human
[7] = system: patients with impaired glucose tolerance and cardiovascular disease or risk factors; details: valsartan for 5 years, along with lifestyle modification; cited from earlier work
[8] = LCZ696 400 mg QD or amlodipine 10 mg QD
[9] = LCZ696 400 mg QD or amlodipine 10 mg QD, listed as AML
[10] = baseline to Day 56, LCZ696 400 mg QD or amlodipine 10 mg QD, 8 weeks
[11] = safety analysis set, 8-week treatment
[12] = 15 min exercise, p=0.014 between groups
[13] = 30 min exercise, p=0.010 between groups

CCOC(=O)C1=C(COCCN)NC(C)=C(C(=O)OC)C1c1ccccc1Cl (stereo not drawn) [Amlodipine, reference compound]
Glucose infusion rate by body weight (Mbw), Day 56, adjusted mean [1, 8]: 3.87 mg/(min * kg)
Insulin sensitivity index, Day 56, adjusted mean [1, 8]: 1.75 μg/kg * min/(mmol/L * pmol/L)
Glucose infusion rate by body weight (Mbw), Day 56, adjusted mean [1, 9]: 3.88 mg/(min * kg)
Insulin sensitivity index, Day 56, adjusted mean [1, 9]: 1.76 μg/kg * min/(mmol/L * pmol/L)
Glucose infusion rate by body weight (Mbw), adjusted mean change from baseline [1, 10]: 0.03 mg/(min * kg)
Insulin sensitivity index, adjusted mean change from baseline [1, 10]: 0.065 μg/kg * min/(mmol/L * pmol/L)
Insulin sensitivity index, adjusted mean change from baseline ([1]; baseline to Day 56, LCZ696 400 mg QD or amlodipine 10 mg QD, 8 weeks, listed as amlodipine): +0.065 μg/kg * min/(mmol/L * pmol/L)
Glucose in adipose tissue microdialysate, adjusted geometric mean ratio Day 57 vs Day 1 ([2]; 30 + 45 min combined, (95% CI)): 0.99 (0.85; 1.16)
Lactate in adipose tissue microdialysate, adjusted geometric mean ratio Day 57 vs Day 1 ([2]; 30 + 45 min combined, (95% CI)): 0.90 (0.70; 1.16)
Glycerol (free) in adipose tissue microdialysate, adjusted geometric mean ratio Day 57 vs Day 1 ([2]; 30 + 45 min time points combined, (95% CI)): 0.86 (0.75; 0.97)
Glycerol (free) in adipose tissue microdialysate, adjusted geometric mean ratio Day 57 vs Day 1 ([2]; 30 min time point, (95% CI)): 0.87 (0.76; 0.99)
Glucose in adipose tissue microdialysate, adjusted geometric mean ratio Day 57 vs Day 1 ([2]; 30 min time point, (95% CI)): 1.00 (0.85; 1.16)
Lactate in adipose tissue microdialysate, adjusted geometric mean ratio Day 57 vs Day 1 ([2]; 30 min time point, (95% CI)): 0.91 (0.69; 1.19)
Glycerol (free) in adipose tissue microdialysate, adjusted geometric mean ratio Day 57 vs Day 1 ([2]; 45 min time point, (95% CI)): 0.85 (0.74; 0.98)
Glucose in adipose tissue microdialysate, adjusted geometric mean ratio Day 57 vs Day 1 ([2]; 45 min time point, (95% CI)): 0.98 (0.83; 1.16)
Lactate in adipose tissue microdialysate, adjusted geometric mean ratio Day 57 vs Day 1 ([2]; 45 min time point, (95% CI)): 0.90 (0.70; 1.16)
interstitial glycerol levels at week 8 (subcutaneous adipose tissue lipolysis at rest) [2]: 63.99 µmol/L
Respiratory quotient (carbon dioxide to oxygen ratio), Day 57 adjusted mean (95% CI) [3]: 0.77 (0.746; 0.804)
Resting energy expenditure, Day 57 adjusted mean (95% CI) [3]: 1991.4 (1904.82; 2078.01) kcal
mean reduction in msDBP (mean seated diastolic blood pressure) [4]: −10.0±7.8 mmHg
mean reduction in msSBP (mean seated systolic blood pressure) [4]: −12.4±14.7 mmHg
Discontinuations due to AEs ([5]; 8-week treatment): three
AEs suspected to be study drug related [5, 11]: 46%
Peripheral edema reported [5, 11]: 16 patients
overall incidence of AEs [5, 11]: 77.1%
microdialysate glycerol at week 8 [6, 12]: 128.8 µmol/L
microdialysate glycerol at week 8 [6, 13]: 149.19 µmol/L

CCCCC(=O)N(Cc1ccc(-c2ccccc2-c2nn[n-]n2)cc1)C(C(=O)[O-])C(C)C.CCOC(=O)C(C)CC(Cc1ccc(-c2ccccc2)cc1)NC(=O)CCC(=O)[O-].[Na+].[Na+].[Na+] [LCZ696, trisodium [3-((1S,3R)-1-biphenyl-4-ylmethyl-3-ethoxycarbonyl-1-butylcarbamoyl)propionate-(S)-3′-methyl-2′-(pentanoyl{2″-(tetrazol-5-ylate)biphenyl-4′-ylmethyl}amino)butyrate] hemipentahydrate]
Glucose infusion rate by body weight (Mbw), Day 56, adjusted mean [1, 8]: 4.49 mg/(min * kg)
Insulin sensitivity index, Day 56, adjusted mean [1, 8]: 1.88 μg/kg * min/(mmol/L * pmol/L) and 1.86 μg/kg * min/(mmol/L * pmol/L)
Metabolic clearance rate, Day 56, adjusted mean ([1]; Day 56, LCZ696 400 mg QD or amlodipine 10 mg QD): 79.07 mmol·min
Insulin sensitivity index, Treatment Difference (LCZ696-Amlodipine) ([1]; difference in adjusted mean change from baseline to Day 56 (95% CI), not statistically significant): 0.128 (−0.155; 0.410) μg/kg * min/(mmol/L * pmol/L)
Glucose infusion rate by body weight (Mbw), Treatment Difference (LCZ696-Amlodipine) ([1]; difference in adjusted mean change from baseline to Day 56 (95% CI), p = 0.016): 0.61 (0.12; 1.11) mg/(min * kg)
Metabolic clearance rate, Treatment Difference (LCZ696-Amlodipine) ([1]; difference in adjusted mean change from baseline to Day 56 (95% CI), p = 0.0312): 9.66 (0.89; 18.42) min * mmol
Glucose in adipose tissue microdialysate, adjusted geometric mean ratio Day 57 vs Day 1 ([2]; 30 + 45 min combined, (95% CI)): 1.02 (0.88; 1.18)
Lactate in adipose tissue microdialysate, adjusted geometric mean ratio Day 57 vs Day 1 ([2]; 30 + 45 min combined, (95% CI)): 0.84 (0.66; 1.06)
Glucose, Treatment differences, ratio of GMR (LCZ696 vs amlodipine) ([2]; 30 + 45 min combined, (95% CI)): 1.03 (0.83; 1.27)
Lactate, Treatment differences, ratio of GMR (LCZ696 vs amlodipine) ([2]; 30 + 45 min combined, (95% CI)): 0.93 (0.65; 1.31)
Glycerol (free) in adipose tissue microdialysate, adjusted geometric mean ratio Day 57 vs Day 1 ([2]; 30 min time point, (95% CI)): 1.02 (0.90; 1.16)
Glucose in adipose tissue microdialysate, adjusted geometric mean ratio Day 57 vs Day 1 ([2]; 30 min time point, (95% CI)): 1.03 (0.86; 1.20)
Lactate in adipose tissue microdialysate, adjusted geometric mean ratio Day 57 vs Day 1 ([2]; 30 min time point, (95% CI)): 0.81 (0.63; 1.04)
Glucose, Treatment differences, ratio of GMR (LCZ696 vs amlodipine) ([2]; 30 min time point, (95% CI)): 1.03 (0.82; 1.29)
Glycerol (free), Treatment differences, ratio of GMR (LCZ696 vs amlodipine) ([2]; 30 min time point, (95% CI)): 1.18 (0.96; 1.43)
Lactate, Treatment differences, ratio of GMR (LCZ696 vs amlodipine) ([2]; 30 min time point, (95% CI)): 0.89 (0.62; 1.29)
Glycerol (free) in adipose tissue microdialysate, adjusted geometric mean ratio Day 57 vs Day 1 ([2]; 45 min time point, (95% CI)): 1.07 (0.94; 1.22)
Glucose in adipose tissue microdialysate, adjusted geometric mean ratio Day 57 vs Day 1 ([2]; 45 min time point, (95% CI)): 1.01 (0.86; 1.18)
Lactate in adipose tissue microdialysate, adjusted geometric mean ratio Day 57 vs Day 1 ([2]; 45 min time point, (95% CI)): 0.86 (0.68; 1.09)
Glucose, Treatment differences, ratio of GMR (LCZ696 vs amlodipine) ([2]; 45 min time point, (95% CI)): 1.03 (0.82; 1.29)
Lactate, Treatment differences, ratio of GMR (LCZ696 vs amlodipine) ([2]; 45 min time point, (95% CI)): 0.96 (0.68; 1.36)
change in ethanol ratio (indicator of adipose tissue blood flow), between treatment groups ([2]; LCZ696 vs amlodipine, any time point except 45 minute time point in the LCZ696 group (small, not considered relevant)): No significant differences
interstitial glycerol levels at week 8 (subcutaneous adipose tissue lipolysis at rest) [2]: 80.53 µmol/L
Respiratory quotient (carbon dioxide to oxygen ratio), Day 57 adjusted mean (95% CI) [3]: 0.78 (0.760; 0.814)
Resting energy expenditure, Day 57 adjusted mean (95% CI) [3]: 1960.1 (1879.42; 2040.90) kcal
mean reduction in msDBP (mean seated diastolic blood pressure) [4]: −12.4±9.1 mmHg
mean reduction in msSBP (mean seated systolic blood pressure) [4]: −21.0±16.1 mmHg
Discontinuations due to AEs ([5]; 8-week treatment): two
mild orthostatic hypertension reported ([5]; both resolved by the end of the study, suspected to be related to study drug): Two
AEs suspected to be study drug related [5, 11]: 24%
Peripheral edema reported [5, 11]: one
Pruritus reported [5, 11]: five
overall incidence of AEs [5, 11]: 60.0%
microdialysate glycerol at week 8 [6, 12]: 153.1 µmol/L
microdialysate glycerol at week 8 [6, 13]: 187.63 µmol/L

CCCCC(=O)N(Cc1ccc(-c2ccccc2-c2nnn[nH]2)cc1)[C@H](C(=O)O)C(C)C [valsartan, S—N-valeryl-N-{[2′-(1H-tetrazole-5-yl)-biphenyl-4-yl]-methyl}-valine]
relative reduction in the incidence of diabetes [7]: 14%
